The values below come from ChEMBL document CHEMBL5233280, “Berberine improves liver injury induced glucose and lipid metabolic disorders via alleviating ER stress of hepatocytes and modulating gut microbiota in mice” (Bioorg Med Chem, 2021).

The structures appear in SMILES notation. The source made the active and inactive calls. No cut-off for these calls is given here.

Holding throughout (format): functional, organism-based
Conditions in all cases: dose 75-300 mg/kg, time 4.0 day

For experiment [1], the system named is Mus musculus. Nature of the experiment: Protection against tunicamycin-induced ER stress-mediated liver injury in C57BL/6 mouse assessed as normal liver morphology at 75 to 300 mg/kg, ig administered for 3 days and on day 3 administered with tunicamycin after 2 hrs and measured after 24 hrs.
Experiment [2] deals with Mus musculus. Nature of the experiment: Protection against tunicamycin-induced ER stress-mediated liver injury in C57BL/6 mouse assessed as normal liver histology at 75 to 300 mg/kg, ig administered for 3 days and on day 3 administered with tunicamycin after 2 hrs and measured after 24 hrs by Hematoxylin-eosin staining based microscopic analysis.
Experiment [3] has as its system Mus musculus. Nature of the experiment: Protection against tunicamycin-induced ER stress-mediated liver injury in C57BL/6 mouse assessed as plasma AST level at 75 to 300 mg/kg, ig administered for 3 days and on day 3 administered with tunicamycin after 2 hrs and measured after 24 hrs.
The subject of experiment [4] is Mus musculus. Nature of the experiment: Protection against tunicamycin-induced ER stress-mediated liver injury in C57BL/6 mouse assessed as plasma ALT level at 75 to 300 mg/kg, ig administered for 3 days and on day 3 administered with tunicamycin after 2 hrs and measured after 24 hrs.
Experiment [5] concerns Mus musculus. Nature of the experiment: Protection against tunicamycin-induced liver injury-mediated hepatic metabolic disorders in C57BL/6 mouse assessed as inhibition of lipid metabolic disorders by measuring increase in plasma TG level at 75 to 300 mg/kg, ig administered for 3 days and on day 3 administered with tunicamycin after 2 hrs and measured after 24 hrs.
Experiment [6] has as its system Mus musculus. Nature of the experiment: Protection against tunicamycin-induced liver injury-mediated hepatic metabolic disorders in C57BL/6 mouse assessed as inhibition of lipid metabolic disorders by measuring increase in plasma TC level at 75 to 300 mg/kg, ig administered for 3 days and on day 3 administered with tunicamycin after 2 hrs and measured after 24 hrs.

Experiment [7] concerns Mus musculus. Nature of the experiment: Protection against tunicamycin-induced liver injury-mediated hepatic metabolic disorders in C57BL/6 mouse assessed as inhibition of lipid metabolic disorders by measuring increase in plasma HDL-C level at 75 to 300 mg/kg, ig administered for 3 days and on day 3 administered with tunicamycin after 2 hrs and measured after 24 hrs.
Experiment [8] has as its system Mus musculus. The experiment is described as follows: Protection against tunicamycin-induced liver injury-mediated hepatic metabolic disorders in C57BL/6 mouse assessed as inhibition of lipid metabolic disorders by measuring increase in plasma LDL-C level at 75 to 300 mg/kg, ig administered for 3 days and on day 3 administered with tunicamycin after 2 hrs and measured after 24 hrs.

The subject of experiment [9] is Mus musculus. Nature of the experiment: Protection against tunicamycin-induced liver injury-mediated hepatic metabolic disorders in C57BL/6 mouse assessed as inhibition of lipid metabolic disorders by measuring increase in plasma VLDL-C level at 75 to 300 mg/kg, ig administered for 3 days and on day 3 administered with tunicamycin after 2 hrs and measured after 24 hrs by ELISA. On the technique in general: In an ELISA, binding on a coated surface is turned into a signal by an enzyme label.

The subject of experiment [10] is Mus musculus. Nature of the experiment: Protection against tunicamycin-induced liver injury-mediated hepatic metabolic disorders in C57BL/6 mouse assessed as inhibition of lipid metabolic disorders by measuring decrease in liver TG level at 75 to 300 mg/kg, ig administered for 3 days and on day 3 administered with tunicamycin after 2 hrs and measured after 24 hrs.

In experiment [11] the test system is Mus musculus. Nature of the experiment: Protection against tunicamycin-induced liver injury-mediated hepatic metabolic disorders in C57BL/6 mouse assessed as TC level in liver at 75 to 300 mg/kg, ig administered for 3 days and on day 3 administered with tunicamycin after 2 hrs and measured after 24 hrs.
Experiment [12] concerns Mus musculus. The experiment is described as follows: Protection against tunicamycin-induced liver injury-mediated hepatic metabolic disorders in C57BL/6 mouse assessed as HDL-C level in liver at 75 to 300 mg/kg, ig administered for 3 days and on day 3 administered with tunicamycin after 2 hrs and measured after 24 hrs.
Experiment [13] deals with Mus musculus. Nature of the experiment: Protection against tunicamycin-induced liver injury-mediated hepatic metabolic disorders in C57BL/6 mouse assessed as LDL-C level in liver at 75 to 300 mg/kg, ig administered for 3 days and on day 3 administered with tunicamycin after 2 hrs and measured after 24 hrs.
For experiment [14], the system named is Mus musculus. Nature of the experiment: Reduction in plasma albumin level in tunicamycin-induced liver injury C57BL/6 mouse model at 75 to 300 mg/kg, ig administered for 3 days and on day 3 administered with tunicamycin after 2 hrs and measured after 24 hrs.
Experiment [15] has as its system Mus musculus. The experiment is described as follows: Protection against tunicamycin-induced liver injury-mediated hepatic metabolic disorders in C57BL/6 mouse assessed as increase in SCD1 gene expression at 75 to 300 mg/kg, ig administered for 3 days and on day 3 administered with tunicamycin after 2 hrs and measured after 24 hrs by RT-qPCR analysis. In general terms: In qPCR the cycle at which signal appears reflects the starting amount.

For experiment [16], the system named is Mus musculus. Nature of the experiment: Protection against tunicamycin-induced liver injury-mediated hepatic metabolic disorders in C57BL/6 mouse assessed as increase in PPARgamma1 gene expression at 75 to 300 mg/kg, ig administered for 3 days and on day 3 administered with tunicamycin after 2 hrs and measured after 24 hrs by RT-qPCR analysis.
The test system of experiment [17] is Mus musculus. The experiment is described as follows: Protection against tunicamycin-induced liver injury-mediated hepatic metabolic disorders in C57BL/6 mouse assessed as increase in PPARgamma2 gene expression at 75 to 300 mg/kg, ig administered for 3 days and on day 3 administered with tunicamycin after 2 hrs and measured after 24 hrs by RT-qPCR analysis.

Experiment [18] deals with Mus musculus. The experiment is described as follows: Protection against tunicamycin-induced liver injury-mediated hepatic metabolic disorders in C57BL/6 mouse assessed as increase in ACCalpha1 gene expression at 75 to 300 mg/kg, ig administered for 3 days and on day 3 administered with tunicamycin after 2 hrs and measured after 24 hrs by RT-qPCR analysis.
Experiment [19] concerns Mus musculus. The experiment is described as follows: Protection against tunicamycin-induced liver injury-mediated hepatic metabolic disorders in C57BL/6 mouse assessed as increase in CYP7A1 gene expression at 75 to 300 mg/kg, ig administered for 3 days and on day 3 administered with tunicamycin after 2 hrs and measured after 24 hrs by RT-qPCR analysis.
Experiment [20] relates to Mus musculus. Nature of the experiment: Protection against tunicamycin-induced liver injury-mediated hepatic metabolic disorders in C57BL/6 mouse assessed as increase in FXR gene expression at 75 to 300 mg/kg, ig administered for 3 days and on day 3 administered with tunicamycin after 2 hrs and measured after 24 hrs by RT-qPCR analysis.

On to `COc1ccc2cc3[n+](cc2c1OC)CCc1cc2c(cc1-3)OCO2`, for which the outcome in the experiment on Mus musculus [1], in the experiment with Mus musculus [2], with Mus musculus [5], with Mus musculus [6], with Mus musculus [7] and in the experiment on Mus musculus [8] was Active. Moreover, the outcome in the experiment with Mus musculus [9] and in the experiment on Mus musculus [10] was Active. Further, the result in the experiment on Mus musculus [3], in the experiment on Mus musculus [4], in the experiment with Mus musculus [11], in the experiment with Mus musculus [12], in the experiment on Mus musculus [13] and in the experiment with Mus musculus [15] was inactive. The result with Mus musculus [16], with Mus musculus [17], with Mus musculus [18], with Mus musculus [19] and with Mus musculus [20] was inactive. Besides, the inhibition entry with Mus musculus [14] is “Active”.
